From ChEMBL document CHEMBL3603776, “2-Phenoxy-1,4-naphthoquinones: From a Multitarget Antitrypanosomal to a Potential Antitumor Profile” (J Med Chem, 2015)
Activity calls are given as the source filed them. The rule behind the calls is not given here.

Key:
L6 = test: Cytotoxicity against rat L6 cells after 72 hrs by alamar blue assay; format: cell-based; conditions: L6, 72 h
Leishmania donovani = test: Antitrypanosomal activity against amastigotes of Leishmania donovani MHOM/ET/67/L82 after 72 hrs by inverted microscope analysis; format: functional, organism-based; conditions: MHOM/ET/67/L82, 72 h
[1] = Selectivity index, ratio of IC50 for rat L6 cells to IC50 for amastigotes of Leishmania donovani MHOM/ET/67/L82; format: toxicity, cell-based; conditions: read-out: Ratio IC50
Trypanosoma brucei = test: Inhibition of recombinant Trypanosoma brucei GAPDH assessed as oxidative phosphorylation of D-glyceraldehyde-3-phosphate to 1,3-bisphosphoglycerate at 5 uM by spectrophotometric method relative to 2-phenoxy-1,4-naphthoquinone
Bos taurus [2] = organism: Bos taurus; test: Inhibition of electron transport protein complex 2 in bovine hear mitochondria assessed as reduction of succinate-induced oxygen consumption at 5 uM
[3] = tested on: Trypanosoma brucei rhodesiense; test: Antitrypanosomal activity against bloodstream forms of Trypanosoma brucei rhodesiense STIB 900 after 72 hrs by alamar blue assay; format: functional, organism-based; conditions: STIB 900, 72 h
[4] = Selectivity index, ratio of IC50 for rat L6 cells to IC50 for bloodstream forms of Trypanosoma brucei rhodesiense STIB 900; format: toxicity, cell-based; conditions: read-out: Ratio IC50
Trypanosoma cruzi = test: Antitrypanosomal activity against trypomastigote forms of Trypanosoma cruzi Tulahuen C4 expressing LacZ gene infected in rat L6 cells after 96 hrs by inverted microscope analysis; format: functional, organism-based; conditions: Tulahuen C4, L6, 96 h
[5] = Selectivity index, ratio of IC50 for rat L6 cells to IC50 for trypomastigote forms of Trypanosoma cruzi Tulahuen C4; format: toxicity, cell-based; conditions: read-out: Ratio IC50
[6] = Inhibition of recombinant Trypanosoma brucei GAPDH assessed as oxidative phosphorylation of D-glyceraldehyde-3-phosphate to 1,3-bisphosphoglycerate by spectrophotometric method
[7] = target: Glyceraldehyde-3-phosphate dehydrogenase (Homo sapiens, UniProt P04406); test: Inhibition of recombinant human GAPDH assessed as oxidative phosphorylation of D-glyceraldehyde-3-phosphate to 1,3-bisphosphoglycerate by spectrophotometric method
[8] = Cytotoxicity against HDF after 24 hrs by MTT assay; conditions: Homo sapiens
IGROV-1 [9] = test: Cytotoxicity against human IGROV1 cells after 24 hrs by MTT assay; format: functional, cell-based; conditions: IGROV-1, 24 h
HT-29 [10] = test: Cytotoxicity against human HT-29 cells after 24 hrs by MTT assay; format: functional, cell-based; conditions: HT-29, 24 h
IGROV-1 [11] = test: Selectivity index, ratio of IC50 for HDF to IC50 for human IGROV1 cells
HT-29 [12] = test: Selectivity index, ratio of IC50 for HDF to IC50 for human HT-29 cells
Bos taurus [13] = organism: Bos taurus; test: Inhibition of electron transport protein complex 1 in bovine hear mitochondria assessed as reduction of NADH-induced oxygen consumption at 5 uM
Bos taurus [14] = organism: Bos taurus; test: Inhibition of electron transport protein complex 1 in bovine hear mitochondria assessed as reduction of NADH-induced ROS production at 10 uM by fluorescence plate reader analysis
Bos taurus [15] = organism: Bos taurus; test: Inhibition of electron transport protein complex 1 in bovine hear mitochondria assessed as enzyme activity per min/mg of protein using […] as substrate at 10 uM

Chain of Glyceraldehyde-3-phosphate dehydrogenase (P04406 whole entry): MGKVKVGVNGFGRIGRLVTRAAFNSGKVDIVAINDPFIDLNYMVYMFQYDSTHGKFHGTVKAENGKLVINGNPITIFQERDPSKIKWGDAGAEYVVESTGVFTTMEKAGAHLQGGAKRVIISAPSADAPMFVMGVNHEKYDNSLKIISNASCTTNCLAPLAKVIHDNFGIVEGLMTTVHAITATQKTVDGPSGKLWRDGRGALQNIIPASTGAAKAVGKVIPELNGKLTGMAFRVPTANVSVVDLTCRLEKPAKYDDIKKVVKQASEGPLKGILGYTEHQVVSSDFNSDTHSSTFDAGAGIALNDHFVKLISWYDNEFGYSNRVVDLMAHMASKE

| SMILES | inhibition (Trypanosoma brucei) [%] | inhibition (Bos taurus [2]) | IC50 [3] [µM] | IC50 (Trypanosoma cruzi) [µM] | IC50 [7] [µM] | IC50 (L6) [µM] | IC50 (Leishmania donovani) [µM] | selectivity ratio [1] | selectivity ratio [4] | selectivity ratio [5] | IC50 [6] [µM] | IC50 [8] [µM] | IC50 (IGROV-1 [9]) [µM] | IC50 (HT-29 [10]) [µM] | Ratio IC50 (IGROV-1 [11]) | Ratio IC50 (HT-29 [12]) | inhibition (Bos taurus [13]) [%] | inhibition (Bos taurus [14]) | Activity (Bos taurus [15]) [µmol/min/mg] |
| --- | --- | --- | --- | --- | --- | --- | --- | --- | --- | --- | --- | --- | --- | --- | --- | --- | --- | --- | --- |
| O=C(Cn1ccnc1[N+](=O)[O-])NCc1ccccc1 [BENZNIDAZOLE] |  |  |  |  |  | > 384 |  |  |  |  |  |  |  |  |  |  |  |  |  |
| COc1cccc2c1C(=O)C(Oc1ccc(NC(C)=O)cc1)=CC2=O | 64 | inactive | 4.15 |  |  | 0.65 | 5.87 | 0.11 | 0.16 |  |  |  |  |  |  |  |  |  |  |
| O=C1C=C(Oc2ccccc2)C(=O)c2cc3ccccc3cc21 | 68 |  |  |  |  |  |  |  |  |  |  |  |  |  |  |  |  |  |  |
| COc1ccc(OC2=CC(=O)c3ccccc3C2=O)cc1 | 28 | inactive | 2.43 | 4.17 |  | 6.1 | 5.32 | 1.15 | 2.51 | 1.46 |  |  |  |  |  |  |  |  |  |
| O=C1C(Oc2ccc(F)cc2)=CC(=O)c2c(O)cccc21 | 136 | inactive | 2.69 |  |  | 1.41 | 2.99 | 0.47 | 0.52 |  |  |  |  |  |  |  |  |  |  |
| CCCCCCCCCCCCCCCCOP(=O)([O-])OCC[N+](C)(C)C [MILTEFOSINE] |  |  |  |  |  |  |  | 462 |  |  |  |  |  |  |  |  |  |  |  |
| COc1ccc(OC2=CC(=O)c3cccc(OC)c3C2=O)cc1 | 48 | inactive | 6.03 |  |  | 1.09 | 22.5 | 0.05 | 0.18 |  |  |  |  |  |  |  |  |  |  |
| Cc1ccc(OC2=CC(=O)c3cccc(O)c3C2=O)cc1 | 44 | inactive | 2.58 | 7.39 |  | 4.03 | 2.99 | 1.34 | 1.56 | 0.54 |  |  |  |  |  |  |  |  |  |
| Cc1ccc(OC2=CC(=O)c3c(O)cccc3C2=O)cc1 | 40 | inactive | 2.37 |  |  | 1.03 | 5.46 | 0.19 | 0.44 |  |  |  |  |  |  |  |  |  |  |
| Nc1nc(N)nc(Nc2ccc([As]3SCC(CO)S3)cc2)n1 (centres undefined) [MELARSOPROL] |  |  |  |  |  |  |  |  | 1830 |  |  |  |  |  |  |  |  |  |  |
| CC(=O)Nc1ccc(OC2=CC(=O)c3ccccc3C2=O)cc1 | 68 | inactive | 2.4 | 4.17 |  | 3.35 | 4.04 | 0.83 | 1.39 | 0.8 |  |  |  |  |  |  |  |  |  |
| O=C1C(Oc2ccccc2)=CC(=O)c2c(O)cccc21 | 88 | inactive | 4.43 |  | 2.41 | 0.26 | 8.41 | 0.03 | 0.06 |  | 11.6 | 15 | 2.52 | 2.42 | 5.96 | 6.2 | 40 | Active |  |
| O=C1C=C(Oc2ccc(F)cc2)C(=O)c2ccccc21 | 80 | inactive | 4.06 | 3.91 |  | 4.51 | 1.82 | 2.47 | 1.11 | 1.15 |  |  |  |  |  |  |  |  |  |
| Cc1ccc(OC2=CC(=O)c3ccccc3C2=O)cc1 | 24 | inactive | 2.28 | 1.62 |  | 3.82 | 3.41 | 1.12 | 1.67 | 2.35 |  |  |  |  |  |  |  |  |  |
| COc1cc([C@@H]2c3cc4c(cc3[C@H](O)[C@H]3COC(=O)[C@H]23)OCO4)cc(OC)c1OC [PODOFILOX] |  |  |  |  |  | 0.002 |  |  |  |  |  |  |  |  |  |  |  |  |  |
| COc1cccc2c1C(=O)C(Oc1ccc(F)cc1)=CC2=O |  | inactive | 4.76 |  | 1.34 | 0.77 | 5.97 | 0.13 | 0.16 |  | 9.92 | 11.9 | 1.73 | 2.7 | 6.87 | 4.4 | 40 | Active | 0.053 |

Continued by falling IC50 [3], values first:

| inhibition (Trypanosoma brucei) [%] | inhibition (Bos taurus [2]) | IC50 [3] [µM] | IC50 (Trypanosoma cruzi) [µM] | IC50 [7] [µM] | SMILES | IC50 (L6) [µM] | IC50 (Leishmania donovani) [µM] | selectivity ratio [1] | selectivity ratio [4] | selectivity ratio [5] | IC50 [6] [µM] | IC50 [8] [µM] | IC50 (IGROV-1 [9]) [µM] | IC50 (HT-29 [10]) [µM] | Ratio IC50 (IGROV-1 [11]) | Ratio IC50 (HT-29 [12]) | inhibition (Bos taurus [13]) [%] | inhibition (Bos taurus [14]) | Activity (Bos taurus [15]) [µmol/min/mg] |
| --- | --- | --- | --- | --- | --- | --- | --- | --- | --- | --- | --- | --- | --- | --- | --- | --- | --- | --- | --- |
| 20 | inactive | 2.18 |  |  | COc1cccc2c1C(=O)C(Oc1ccc(C)cc1)=CC2=O | 0.75 | 10.9 | 0.07 | 0.34 |  |  |  |  |  |  |  |  |  |  |
| 0 | inactive | 2.17 |  |  | CC(=O)Nc1ccc(OC2=CC(=O)c3c(O)cccc3C2=O)cc1 | 0.59 | 3.8 | 0.15 | 0.27 |  |  |  |  |  |  |  |  |  |  |
| 72 | inactive | 1.76 |  |  | COc1cccc2c1C(=O)C(Oc1ccccc1)=CC2=O | 0.64 | 13.1 | 0.05 | 0.36 |  |  |  |  |  |  |  |  |  |  |
| 76 | inactive | 1.71 |  |  | COc1ccc(OC2=CC(=O)c3cccc(O)c3C2=O)cc1 | 1.04 | 3.13 | 0.33 | 0.61 |  |  |  |  |  |  |  |  |  |  |
| 24 | inactive | 1.44 |  |  | COc1ccc(OC2=CC(=O)c3c(O)cccc3C2=O)cc1 | 1.04 | 2.11 | 0.5 | 0.73 |  |  |  |  |  |  |  |  |  |  |
| 128 | inactive | 1.37 |  |  | O=C1C=C(Oc2ccc(F)cc2)C(=O)c2c(O)cccc21 | 0.74 | 1.33 | 0.55 | 0.54 |  |  |  |  |  |  |  |  |  |  |
| 90 | inactive | 1.21 |  |  | CC(=O)Nc1ccc(OC2=CC(=O)c3cc4ccccc4cc3C2=O)cc1 | 0.19 | 3.25 | 0.06 | 0.16 |  |  |  |  |  |  |  |  |  |  |
| 32 | inactive | 1.21 |  |  | O=C1C=C(Oc2ccc(F)cc2)C(=O)c2cc3ccccc3cc21 | 1.07 | 2.14 | 0.5 | 0.88 |  |  |  |  |  |  |  |  |  |  |
| 84 | inactive | 0.85 |  |  | O=C1C=C(Oc2ccccc2)C(=O)c2c(O)cccc21 | 1.5 | 2.96 | 0.51 | 1.76 |  |  |  |  |  |  |  |  |  |  |
| 0 | inactive | 0.73 |  |  | Cc1ccc(OC2=CC(=O)c3cc4ccccc4cc3C2=O)cc1 | 0.13 | 1.16 | 0.11 | 0.17 |  |  |  |  |  |  |  |  |  |  |
| 88 | inactive | 0.68 |  |  | COc1cccc2c1C(=O)C=C(Oc1ccccc1)C2=O | 1.85 | 5.6 | 0.33 | 2.74 |  |  |  |  |  |  |  |  |  |  |
| 120 | inactive | 0.67 |  |  | COc1cccc2c1C(=O)C=C(Oc1ccc(F)cc1)C2=O | 1.34 | 3.72 | 0.36 | 1.99 |  |  |  |  |  |  |  |  |  |  |
| 52 | inactive | 0.67 | 4.06 |  | COc1cccc2c1C(=O)C=C(Oc1ccc(NC(C)=O)cc1)C2=O | 4.89 | 4.77 | 1.02 | 7.3 | 1.2 |  |  |  |  |  |  |  |  |  |
| 48 | inactive | 0.65 |  |  | CC(=O)Nc1ccc(OC2=CC(=O)c3cccc(O)c3C2=O)cc1 | 0.15 | 2.33 | 0.07 | 0.24 |  |  |  |  |  |  |  |  |  |  |
| 44 | inactive | 0.64 |  |  | COc1ccc(OC2=CC(=O)c3c(OC)cccc3C2=O)cc1 | 1.58 | 3.09 | 0.51 | 2.46 |  |  |  |  |  |  |  |  |  |  |
| 40 | inactive | 0.55 |  |  | COc1cccc2c1C(=O)C=C(Oc1ccc(C)cc1)C2=O | 1.49 | 2.64 | 0.57 | 2.71 |  |  |  |  |  |  |  |  |  |  |
